Values joined by “and” are separate entries in the source; they are usually repeats but may differ in a detail not shown here. Equal entries are not always repeated.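 96-well plates; 48 h exposure; 5 concentrations. Endpoints by linear interpolation between flanking doses. Not reached: highest tested concentration assigned. GI50: concentration for 50% inhibition of growth. TGI denotes the concentration required for complete inhibition of growth.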
Experiments:
Experiment in all cases: inhibition of tumour cell growth, NCI panel, 48 h
[1] = test system: T-47D breast
[2] = test system: SF-539 CNS
[3] = test system: NCI-H23 lung
[4] = test system: MOLT-4 leukemia
[5] = test system: SK-MEL-5 melanoma
[6] = test system: HCT-116 colon
[7] = test system: ACHN renal
[8] = test system: TK-10 renal
[9] = test system: MALME-3M melanoma
[10] = test system: HOP-92 NSCLC

Row | SMILES | GI50 [1] | TGI [1] | GI50 [2] | TGI [2] | GI50 [3] | TGI [3] | GI50 [4] | TGI [4] | GI50 [5] | TGI [5] | GI50 [6] | TGI [6] | GI50 [7] | TGI [7] | GI50 [8] | TGI [8] | GI50 [9] | TGI [9] | GI50 [10] | TGI [10]
1 | C=C1CC[C@@H](C(C)C)C[C@@H]2[C@H]([C@H](O)C[C@]2(C)O)[C@@]2(C)CC[C@@H]1O2 | 14.9 µM | 33.1 µM | 24.4 µM | 43.3 µM | 20.1 µM | 42.7 µM | 22.8 µM | 51.2 µM | 14.8 µM | 28.3 µM | 16.7 µM | 30.3 µM | 16.5 µM | 30 µM | 21.7 µM | 43.7 µM | 14.1 µM | 28.6 µM | 6.84 µM | 20.7 µM
2 | O=C(N/N=C/c1c(Cl)cccc1Cl)c1ccc(C(F)(F)F)nc1Nc1cccc(C(F)(F)F)c1 | 0.971 µM | 11.8 µM | 2.11 µM | 8.09 µM | 1.42 µM | > 21.8 µM | 0.394 µM | 7.7 µM | 0.829 µM | 2.84 µM | 0.461 µM | 38.8 µM | 1.26 µM | 11.3 µM | 2.87 µM | > 91.4 µM | 2.17 µM | 9.23 µM | 0.293 µM | 3 µM
3 | O=C(NO)c1ccc(CN(c2cnccn2)c2cnccn2)cc1 | 9.55 µM | 38.1 µM | 14.1 µM | 34.6 µM |  |  | 17.7 µM | > 100 µM | 13.1 µM | 26.1 µM | 6.04 µM | 28.9 µM | 12.9 µM | 27.4 µM | 11.3 µM | 42 µM | 7.9 µM | 23.8 µM | 16.4 µM | 35.1 µM
4 | Cc1ccc(Nc2nnc(-c3ccc4c(c3)OCO4)o2)c(C)c1 |  | > 100 µM |  | > 100 µM |  | > 100 µM |  | > 100 µM |  | > 100 µM |  | > 100 µM |  | > 100 µM |  | > 100 µM |  | > 100 µM |  | > 100 µM
5 | CCCCCc1ccc(S(=O)(=O)Nc2cc(-c3csc(NC(C)=O)n3)ccc2N2CCN(C)CC2)cc1 | 4.8 µM | 11.7 µM | 4.98 µM | 9.63 µM | 4.78 µM | 9.53 µM | 2.43 µM | 8.33 µM | 5.28 µM | 9.79 µM | 1.11 µM | 4.43 µM | 4.87 µM | 9.24 µM | 6.09 µM | 11.7 µM | 4.05 µM | 9.11 µM | 3.68 µM | 8.84 µM
6 | S=C1SC2=Nc3ccccc3CN2C2=NCCN12 | 78.5 µM | > 100 µM | > 100 µM | > 100 µM | > 100 µM | > 100 µM | 39.9 µM | > 100 µM | 14.8 µM | 55.5 µM | 52.8 µM | > 100 µM | > 100 µM | > 100 µM | > 100 µM | > 100 µM | 49.6 µM | > 100 µM | > 100 µM | > 100 µM
7 | CCCCCCCCCCN1CCC(N2CCCCC2)CC1 | 1.53 µM | 3.58 µM | 1.48 µM | 2.88 µM | 3.35 µM | 14.5 µM | 2.09 µM | 6.65 µM | 1.54 µM | 2.87 µM | 1.27 µM |  | 4.31 µM | 13.7 µM | 2.08 µM | 5.71 µM | 1.97 µM | 3.98 µM | 0.763 µM | 8.5 µM
8 | O=C(Nc1ccc(Cl)c(Cl)c1)Nc1ccccc1O | 4.11 µM | 43.6 µM | 12.4 µM | 30.4 µM | 2.98 µM | 16.1 µM | 3.15 µM | 49.1 µM | 7.71 µM | 20.5 µM | 7.22 µM | 33.5 µM | 3.9 µM | 51.5 µM | 6.41 µM | 28 µM | 4.82 µM | 20.3 µM | 6.46 µM | 27.3 µM
9 | O=c1[nH]c(=O)n([C@H]2CCCO2)cc1F | 2610 µM | > 5000 µM | 374 µM | 864 µM and 3520 µM | 936 µM | > 5000 µM | > 3500 µM | > 5000 µM | 429 µM | > 2600 µM | 1020 µM | > 5000 µM | 2600 µM | > 5000 µM | 1880 µM | > 5000 µM | 1360 µM | > 5000 µM |  | > 5000 µM
10 | Cc1cc(C)n(-c2nnc3n2N=C(c2ccc(-c4ccccc4)cc2)CS3)n1 | 4.05 µM | > 100 µM | 2.15 µM | 5.2 µM | 4.79 µM | > 100 µM | 3.66 µM | > 100 µM | 2.46 µM | 5.88 µM | 3.39 µM | > 100 µM | 3.98 µM | > 100 µM | 2.47 µM | 42.2 µM | 3.44 µM | 17 µM | 1.38 µM | 5.13 µM
11 | Cn1c(=O)c2c(ncn2CC(=O)Nc2ccc(-c3ccccc3)nn2)n(C)c1=O | 75.6 µM | > 100 µM | > 100 µM | > 100 µM | > 100 µM | > 100 µM | > 100 µM | > 100 µM | 62.6 µM | > 100 µM | > 100 µM | > 100 µM | > 100 µM | > 100 µM | > 100 µM | > 100 µM | > 100 µM | > 100 µM | > 100 µM | > 100 µM
12 | COC(C(=O)[C@@H](O)[C@@H](C)O)[C@@H]1Cc2cc3cc(O[C@H]4C[C@@H](O[C@H]5C[C@@H](O)[C@H](O)C(C)O5)[C@H](O)C(C)O4)c(C)c(O)c3c(O)c2C(=O)[C@H]1O[C@H]1C[C@@H](O[C@H]2C[C@@H](O[C@H]3C[C@@H](O)[C@H](OC)C(C)O3)[C@@H](O)C(C)O2)[C@H](O)C(C)O1 (stereo not given in full) | 0.0139 µM | 0.237 µM | 0.0142 µM | 0.101 µM | 0.0184 µM | 0.234 µM | 0.0231 µM | 0.219 µM | 0.00955 µM | 0.0444 µM | 0.0112 µM | > 33.3 µM | 0.0831 µM | > 33.3 µM |  | 0.322 µM | 0.011 µM | 0.088 µM | 0.0122 µM | 1.27 µM

— PubChem BioAssay (NCI)
